From paper PMC11079064, “Discovery of a brain penetrant small molecule antagonist targeting LPA1 receptors to reduce neuroinflammation and promote remyelination in multiple sclerosis” (Scientific Reports, 2024) come the findings set out here.

Series [1] concerns mouse cortical brain slices. Briefly: Lysolecithin-treated mouse organotypic slice culture, Mbp transcript. To be noted: lysolecithin 18 h, then 3 days treatment; read-out: EC50 of Mbp transcript increase. In kind it is cell-based. The protocol:
We next used an ex vivo organotypic brain slice culture to assess remyelination following a demyelinating insult. Mouse cortical brain slices were treated with lysolecithin, which induces acute demyelination through a non-specific lipid-based mechanism. […] After 3 additional days, the brain slices were processed for Mbp.
Evaluation of Mbp transcript in mouse brain slice culture: Brains were collected from P17 mice and placed into ice cold HBSS containing 20% FBS. Brains were bisected sagittally and 250 µm coronal slices made with a manual tissue chopper. Only slices anterior to the hippocampus displaying a discrete corpus callosum were used. Approximately 12 slices are obtained per animal. Slices were laid on a 30 mm MilliCell organotypic culture insert in a 6-well culture dish containing 1.1 mL growth media (DMEM, 25% HBSS-Ca^2+/-Mg^2+, 25% heat inactivated horse serum, glucose (5 g/l), 25 mM ascorbic acid and penicillin/streptomycin). Slices were cultured in vitro for 72 h with a 50% media change at 24 h. After 72 h, slices were demyelinated using media containing 0.5 mg/ml lysolecithin for 18 h. […] Slices were snap frozen and RNA extracted using the RNEasy Mini kit (Qiagen). […] Data was calculated using 2^−ΔΔCt , normalizing to 18S RNA and vehicle.

The nature of series [2]: Plasma concentration time course after oral dose. Format: in vivo. Conditions: 3 mg/kg oral, mouse.
The next series deals with rat OPCs. The series can be described thus: OPC differentiation assay (PDGF withdrawal, MBP+ oligodendrocytes). In kind it is cell-based. To be noted: PDGF removed, 3 days treatment, percent of T3 induced differentiation; read-out: EC50 of increase in differentiated MBP+ oligodendrocytes. The protocol: Given the expression of Lpar1 on OPCs, we wanted to know how direct, exogenous application of LPA would affect OPC differentiation. Using the same PDGF withdrawal paradigm to induce OPC differentiation, we added various concentrations of LPA to the culture media and quantified MBP^+ oligodendrocytes 3 days later.
Primary rat OPCs were isolated and cultured in the presence of PDGF. One day later, PDGF was removed and various doses of PIPE-791 were added to the cultures. These cultures were fixed 3 days post-PIPE-791 treatment and immunostained for MBP.
OPC isolation: For immunopanning purification of OPCs, cortical hemispheres were dissected from postnatal day 8 Sprague–Dawley rat pups. Tissue culture dishes were incubated overnight with goat IgG secondary antibodies to mouse (Jackson Laboratories, Bar Harbor, ME). Dishes were rinsed and incubated at room temperature with primary antibodies for Ran-2, GalC and O4 (gift from Jonah Chan lab). Rodent cortical hemispheres were minced and dissociated with papain (Thermo Fisher, Waltham, MA) for 1 h at 37°. After dissociation, cells were resuspended in a panning buffer (0.2% BSA in DPBS) and incubated at room temperature sequentially on three immunopanning dishes: Ran-2 and GalC were used for negative selection before positive selection with O4. […]

For series [3], the system named is off-target panel (SAFETYscan E/IC50 ELECT). The series can be described thus: Eurofins off-target panel (SAFETYscan E/IC50 ELECT). To be noted: test concentration 30 µM. An excerpt: Supplemental Figure 1. Results from Eurofins SAFETYscan E/IC50 ELECT.

SMILES strings stand for the structures.

Take `COc1ccc(NC(=O)N(c2ccccc2C(C)C)C2CCC(C(=O)O)CC2)c(OC(F)F)n1` (centres unmarked) [PIPE-791]: the EC50 (in general, the concentration that produces a half-maximal response) in series [1] amounted to 12.1 nM. Also, in series [2], the “plasma concentration after 3 days” value is on record as “below the limit of detection” and the “time of peak plasma concentration” value is on record as 2 h. In the series with rat OPCs, the EC50 worked out at 108 nM. Also, in series [3], the off-target activities entry was “no appreciable activities”.
